≈ marks a conversion by molar mass, not a printed value. Where “and” joins values, the source holds several entries; their conditions need not be identical. Equal entries are not always repeated.
Assays:
[1] = system: A. baumannii clinical strains; assay: Antibacterial susceptibility studies (MIC50 and MIC90) with clinical strains, CLSI guidelines; type: cell-based
[2] = system: E. cloacae clinical strains; assay: as above; type: cell-based
[3] = system: K. pneumoniae [ATCC13883]; assay: Neutropenic thigh infection model in rat; type: in vivo; details: for Log 10 CFU/g thigh: individual animals
Procedure: Example 15 was tested in rat thigh infection model following intravenous infusion of compound at doses of 100 mg/kg once, 30 mg/kg once daily over a period of 1 hr to assess its efficacy. This study was performed following all ethical practices as laid down in the guidelines for animal care (Registration number No. 1852/PO/Rc/S/16/CPCSEA). The study was approved by the Institutional Animals Ethics Committee (IAEC) of the test facility. The formulation used was 10% of L-ascorbic acid in fresh MilliQ water (w/v) with pH adjusted to ˜4.0 with 1N NaOH. On Day −4 (4 days prior to the desired date of infection), each rat was dosed with a single intra-peritoneal injection of cyclophosphamide equivalent to 150 mg/kg, and returned to its cage. On Day−1 (a day prior to infection) each rat received a dose equivalent to 100 mg/kg of Cyclophosphamide. This procedure ensured that animals will be neutropenic on day 0. […] The inoculum was serially diluted ten-fold in sterile CSDB broth and 0.05 ml of six dilutions were plated onto CSDA agar plates to determine the viable count (CFU/ml) of inoculum. All animals were divided into different groups as specified in the experimental design for each microorganism. All infections were conducted in a biological safety cabinet, with appropriate personnel protection. […] A gentle shaking/mixing of inoculum between two animals was followed for uniform distribution.
Two hours post infection, animals in groups 4, 5 and 6 were administered intravenously with example 15, as a constant rate infusion (duration of infusion 1 h), under Ketamine 60 mg/kg IP+Xylazine 10 mg/kg IP anesthesia, at a dose volume of 10 ml/kg, at the rate of 0.16 ml/min. The dose levels of Example 15 were 10, 30 and 100 mg/kg. […] The total duration of the study was 10 h.
Animals were sacrificed 10 hr post infection and thigh tissues were harvested to enumerate the bacterial CFU count. Thigh muscles were aseptically excised, weighed, and placed into 1 ml of sterile CSDB broth, and homogenized (Omni Tip (220 V hand held)). Serial ten-fold dilutions of the thigh homogenates were prepared in sterile lactose broth and 0.05 mL of four dilutions for each thigh was plated onto CSDA agar plates. Bacterial colonies were enumerated following overnight incubation at […]. Bacterial densities were estimated as Log 10 CFU/gram thigh. The Mean±SD Log 10 CFU/gram thigh was estimated in each group. Significant differences between group means and control will be analyzed by One way ANOVA, followed by a Dunnett's multiple comparison test, using Graphpad Prism at 95% confidence levels. A P value of <0.05 was considered as significant.

E. coli [ATCC25922] = assay: Urinary tract infection (UTI) rat model; type: in vivo; details: for MEAN ± SD (Log10 CFU/g kidneys) / Mean Log10 CFU/g kidney reduction (wrt 4 h PI control: 6.03 Log10 CFU/g kidneys) / MEAN ± SD (Log 10 CFU/ml Bladder) / Mean Log10 CFU/ml Bladder reduction (wrt 4 h PI control: 6.49 CFU/ml Bladder) / Log10 CFU/g (Left Kidney) / Log10 CFU/g (Right Kidney) / Log 10 CFU/ml Bladder: i.v., 1 h infusion, rat UTI, 24 h post infection; for Log10 CFU/g (Left Kidney) / Log10 CFU/g (Right Kidney) / Log 10 CFU/ml Bladder: individual animals
Procedure: The purpose of this study is to assess the efficacy of Example 15 against E. coli [ATCC25922] following single dose intravenous infusion doses of 3, 10 and 30 mg/kg in a Urinary Tract Infection Rat Model
Prior to the start of the infection process all animals were divided into different groups. All grouped cages of animals were carried to a procedure room, close to a biological safety cabinet. All infections were conducted in a biological safety cabinet, with appropriate personnel protection. Animals were anaesthetized by intraperitoneal injection of ketamine & xylazine (60+10 mg/kg i.p.) cocktail. Once the animals were in a sufficiently deep plane of anaesthesia as monitored by pedal reflex, the abdominal wall of each rat was shaved with electric clippers and the skin was cleansed with 10% povidine iodine. After a 1.5 to 2 cm lower abdominal wall incision, the abdominal wall muscles were separated with blunt dissection. […] After the replacement of the bladder to its original location, the abdominal muscles were approximated using suture and the skin was closed. The wounds were cleansed using 10% povidine iodine.
The IV formulation vehicle used was 10% of L-ascorbic acid in fresh MilliQ water (w/v) with pH adjusted to 4.0 with 1N Sodium hydroxide solution (w/v), and the dose volume was 10 mL/kg. Meropenem was prepared in MilliQ water and the pH of solution was adjusted to 4.5 using HCl. Four hours post infection, animals were dosed intravenously, as single doses (for test compounds), as a constant rate infusion, under Ketamine 60 mg/kg IP+Xylazine 10 mg/kg IP anesthesia, at a dose volume of 10 ml/kg, at the rate of 0.03 ml/min. The dose levels of the test compounds were 3, 10 and 30 mg/kg. Meropenem was administered as a single bolus dose at a dose volume of 5 ml/kg. All the animals were sacrificed at 24 h post infection, as specified in experimental design, by an overdose of CO2 in an appropriate exposure chamber. The group 1 animals were sacrificed at 4 h post infection.
The euthanized animals were dipped into 70% ethanol for surface decontamination. The organs were removed aseptically; the bladder was cut away near the urethra, and the kidneys were removed by blunt dissection to avoid bleeding. The bladder and each kidney separately were be homogenized in PBS. The CFU per milliliter homogenate of bladder, & kidney were determined after 18 to 24 h of incubation at 37° C.

[4] = system: K. pneumoniae [ATCC13883]; assay: Neutropenic thigh infection model in rat; type: in vivo
[5] = Enterobacter cloacae, E. cloacae clinical strains (88 strains)
[6] = 10 mg/kg, i.v., 1 h infusion, neutropenic rat, 10 hr post infection
[7] = 30 mg/kg, i.v., 1 h infusion, neutropenic rat, 10 hr post infection
[8] = 3 mg/kg, i.v., 1 h infusion, neutropenic rat, 10 hr post infection

Cn1c(=O)ccc2ccc(F)c(CCNC[C@H]3CN(c4cnc5c(n4)NC(=O)CO5)C(=O)O3)c21 [Example 15, (S)-6-(5-(((2-(7-fluoro-1-methyl-2-oxo-1,2-dihydroquinolin-8-yl)ethyl)amino)methyl)-2-oxooxazolidin-3-yl)-2H-pyrazino[2,3-b][1,4]oxazin-3(4H)-one]
MIC ATCC19606 ([1]; A. baumannii reference strain ATCC19606, no unit in this line): 0.06 µg/mL (≈ 0.128 µM)
MIC50 ([1]; Acinetobacter baumannii): 0.06 µg/mL (≈ 0.128 µM)
MIC90 ([1]; Acinetobacter baumannii): 0.125 µg/mL (≈ 0.267 µM)
Minimum ([1]; lowest MIC among A. baumannii clinical strains (169 strains; Example 15: 132), no unit in this line): 0.03
MIC50 [2, 5]: 0.25 µg/mL (≈ 0.534 µM)
MIC90 [2, 5]: 1 µg/mL (≈ 2.13 µM)
Minimum ([2]; lowest MIC among E. cloacae clinical strains (88 strains), no unit in this line): 0.03
MEAN ± SD (Log 10 CFU/g thigh) [3, 6]: 2.91 ± 0.24 Log 10 CFU/g thigh
MEAN ± SD (Log 10 CFU/g thigh) [3, 7]: 2.22 ± 0.50 Log 10 CFU/g thigh
Mean Log10CFU/g thigh reduction (wrt 2 h PI control: 4.72 Log10CFU/g thigh) [3, 7]: 2.50 Log10CFU/g thigh
Log 10 CFU/g thigh [3, 6]: 3.18 Log 10 CFU/g thigh and 2.85 Log 10 CFU/g thigh and 2.71 Log 10 CFU/g thigh
Log 10 CFU/g thigh [3, 7]: 1.92 Log 10 CFU/g thigh and 1.94 Log 10 CFU/g thigh and 2.8 Log 10 CFU/g thigh
efficacy with respect to 2 h Post Infection (PI) control (in words) ([3]; rat thigh model, 10 and 30 mg/kg): significant dose dependent efficacy
efficacy versus standard drug (in words) ([3]; rat thigh model, similar dose (10 mg/kg)): comparable to standard drug ciprofloxacin
MEAN ± SD (Log10 CFU/g kidneys) (E. coli [ATCC25922]; 3 mg/kg): 7.13 ± 0.62 Log10 CFU/g kidneys
Mean Log10 CFU/g kidney reduction (wrt 4 h PI control: 6.03 Log10 CFU/g kidneys) (E. coli [ATCC25922]; 3 mg/kg): −1.1 Log10 CFU/g kidneys
MEAN ± SD (Log 10 CFU/ml Bladder) (E. coli [ATCC25922]; 3 mg/kg): 7.01 ± 0.23 Log 10 CFU/ml
Mean Log10 CFU/ml Bladder reduction (wrt 4 h PI control: 6.49 CFU/ml Bladder) (E. coli [ATCC25922]; 3 mg/kg): −0.52 Log10 CFU/ml
MEAN ± SD (Log10 CFU/g kidneys) (E. coli [ATCC25922]; 10 mg/kg): 5.82 ± 0.94 Log10 CFU/g kidneys
Mean Log10 CFU/g kidney reduction (wrt 4 h PI control: 6.03 Log10 CFU/g kidneys) (E. coli [ATCC25922]; 10 mg/kg): 0.21 Log10 CFU/g kidneys
MEAN ± SD (Log 10 CFU/ml Bladder) (E. coli [ATCC25922]; 10 mg/kg): 5.85 ± 0.27 Log 10 CFU/ml
Mean Log10 CFU/ml Bladder reduction (wrt 4 h PI control: 6.49 CFU/ml Bladder) (E. coli [ATCC25922]; 10 mg/kg): 0.64 Log10 CFU/ml
MEAN ± SD (Log10 CFU/g kidneys) (E. coli [ATCC25922]; 30 mg/kg): 4.46 ± 0.52 Log10 CFU/g kidneys
Mean Log10 CFU/g kidney reduction (wrt 4 h PI control: 6.03 Log10 CFU/g kidneys) (E. coli [ATCC25922]; 30 mg/kg): 1.57 Log10 CFU/g kidneys
MEAN ± SD (Log 10 CFU/ml Bladder) (E. coli [ATCC25922]; 30 mg/kg): 4.80 ± 0.17 Log 10 CFU/ml
Mean Log10 CFU/ml Bladder reduction (wrt 4 h PI control: 6.49 CFU/ml Bladder) (E. coli [ATCC25922]; 30 mg/kg): 1.69 Log10 CFU/ml
Log10 CFU/g (Left Kidney) (E. coli [ATCC25922]; 3 mg/kg): 6.81 Log10 CFU/g and 6.44 Log10 CFU/g and 6.48 Log10 CFU/g
Log10 CFU/g (Right Kidney) (E. coli [ATCC25922]; 3 mg/kg): 7.51 Log10 CFU/g and 7.68 Log10 CFU/g and 7.86 Log10 CFU/g
Log 10 CFU/ml Bladder (E. coli [ATCC25922]; 3 mg/kg): 5.54 Log 10 CFU/ml and 6.79 Log 10 CFU/ml and 7.00 Log 10 CFU/ml
Log10 CFU/g (Left Kidney) (E. coli [ATCC25922]; 10 mg/kg): 4.69 Log10 CFU/g and 5.68 Log10 CFU/g and 4.80 Log10 CFU/g
Log10 CFU/g (Right Kidney) (E. coli [ATCC25922]; 10 mg/kg): 6.66 Log10 CFU/g and 6.13 Log10 CFU/g and 6.97 Log10 CFU/g
Log 10 CFU/ml Bladder (E. coli [ATCC25922]; 10 mg/kg): 5.54 Log 10 CFU/ml and 5.97 Log 10 CFU/ml and 6.05 Log 10 CFU/ml
Log10 CFU/g (Left Kidney) (E. coli [ATCC25922]; 30 mg/kg): 4.98 Log10 CFU/g and 3.84 Log10 CFU/g and 4.12 Log10 CFU/g
Log10 CFU/g (Right Kidney) (E. coli [ATCC25922]; 30 mg/kg): 4.66 Log10 CFU/g and 4.05 Log10 CFU/g and 5.11 Log10 CFU/g
Log 10 CFU/ml Bladder (E. coli [ATCC25922]; 30 mg/kg): 4.61 Log 10 CFU/ml and 4.91 Log 10 CFU/ml and 4.90 Log 10 CFU/ml
efficacy compared to the 4 h PI control (in words) (E. coli [ATCC25922]; rat UTI model, 3 mg/kg): bacteriostatic
efficacy with respect to 4 h PI control (in words) (E. coli [ATCC25922]; rat UTI model, 10 and 30 mg/kg): significant dose dependent
efficacy versus standard drug (in words) (E. coli [ATCC25922]; rat UTI model, similar dose (30 mg/kg)): comparable to standard drug meropenem
MEAN ± SD (Log 10 CFU/g thigh) [4, 8]: 4.10 ± 0.46 Log 10 CFU/g thigh
Mean Log10CFU/g thigh reduction (wrt 2 h PI control: 4.72 Log10CFU/g thigh) [4, 8]: 0.62 Log10CFU/g thigh
Mean Log10CFU/g thigh reduction (wrt 2 h PI control: 4.72 Log10CFU/g thigh) [4, 6]: 1.81 Log10CFU/g thigh
Log 10 CFU/g thigh ([4]; individual animals, 3 mg/kg, i.v., 1 h infusion, neutropenic rat, 10 hr post infection): 4.1 Log 10 CFU/g thigh and 4.56 Log 10 CFU/g thigh and 3.65 Log 10 CFU/g thigh
efficacy compared to the 2 h PI control (in words) ([4]; rat thigh model, 3 mg/kg): bacteriostatic
